Measured values reported in publication PMC8151276, “An Integrated Approach toward NanoBRET Tracers for Analysis of GPCR Ligand Engagement” (Molecules, 2021).

Biological target: T1, ADORA2A (Homo sapiens, UniProt P29274)
T1 construct: purchased Promega (in-house HiBiT-GPCR construct library, NanoBRET)
Assay: NanoBRET screen HiBiT-ADORA2A in HEK293
Format: binding
Protocol: Each tracer candidate was screened across the entire library of HiBiT-GPCR constructs using NanoBRET as the detection modality. As depicted in Figure 4A, the specificity of interactions was evaluated through decrease in BRET due to competitive displacement of a bound tracer by excess parental compound. Each tracer was analyzed for binding to each HiBiT-GPCR fusion in the absence and in the presence of competing parental compound. Briefly, HEK293 cells were transfected with HiBiT-GPCR constructs diluted into promoterless DNA to reduce expression and maximize translocation to the cell surface. Each tracer candidate was then screened at concentrations of 1 μM and 0.1 μM across cells expressing these fusions. Cells were treated for 1.5 h with tracer either alone or in the presence of 20 μM competing parental compound (i.e., control). BRET was measured upon addition of purified LgBiT and subsequent complementation with HiBiT genetically fused to a GPCR. The specificity of interactions was assessed through a decrease in BRET signal due to competitive displacement of the bound tracer. To further gauge the robustness of these interactions, the fold response over the control (i.e., BRETtracer/BRETcontrol) was calculated. We chose a 1.5-fold response, which translates to ≥7-fold signal over noise as the minimal threshold required to score an interaction as positive.
HiBiT-GPCR DNA constructs were diluted in 10 mM Tris pH 8 to a final concentration of 0.01 μg/μL, arrayed in 96-well plates and stored at −20 °C. For transfection, HEK293 cells were suspended in Opti-MEM (without phenol red) supplemented with 2% fetal bovine serum (Seradigm) and 100 units/mL penicillin–streptomycin (Gibco) at a final concentration of 220,000 cells/mL and dispensed into white 96-well plates at 90 μL/well. Subsequent transfections and screens were carried using an Agilent Bravo Automated Liquid Handling Platform. First, the 96-well HiBiT DNA arrays were diluted 25-fold in Opti-MEM (without serum or phenol red) to a final concentration of 0.0004 μg/μL and 20 μL of the diluted DNAs were transferred into new 96-well plates. Next, promoterless carrier DNA (1 μg/μL) was diluted 25-fold (0.04 μg/μL) and then dispensed into the diluted arrays at 20 μL/well. Following brief mixing, Viafect transfection reagent (Promega) diluted 16-fold into Opti-MEM was dispensed into the plates at 40 μL/well. After mixing by pipetting, plates were incubated for 10 min on the pipetting station deck. The DNA-transfection reagent complexes were then added to plates containing cells. To facilitate the screen, 10 μL of DNA-transfection reagent complexes were added in duplicates to the top 4 and bottom 4 rows, resulting in two identical 48-well arrays per plate. Plates with transfected cells were incubated for 18–20 h at 37 °C/5% CO2. A screen of each tracer across the entire library using two different concentrations requires duplicate plates of transfected cells. Depending on the number of tracers being screened, transfections can be scaled up using the same ratios. The next day, for each tracer, four 20× screening solutions in tracer dilution buffer (Promega) were prepared: two duplicates at final concentration of 20 μM and two duplicates at a final concentration of 2 μM. […] The four resulting solutions were diluted 4-fold in Opti-MEM without serum or phenol red to generate 5× solutions (5 µM and 0.5 µM tracer +/− 100 μM competing compound). To screen the library, a BioTek MultiFlo FX liquid dispenser was used to dispense 22.5 µL of tracer solution to the top 4 rows and 22.5 µL tracer + competing compound solution to the 4 bottom rows. Plates were briefly mixed on an orbital shaker and incubated for 1.5 h at room temperature. […] Plates were briefly mixed on an orbital shaker and incubated for 15 min to allow complementation.

T1 sequence (P29274 whole entry): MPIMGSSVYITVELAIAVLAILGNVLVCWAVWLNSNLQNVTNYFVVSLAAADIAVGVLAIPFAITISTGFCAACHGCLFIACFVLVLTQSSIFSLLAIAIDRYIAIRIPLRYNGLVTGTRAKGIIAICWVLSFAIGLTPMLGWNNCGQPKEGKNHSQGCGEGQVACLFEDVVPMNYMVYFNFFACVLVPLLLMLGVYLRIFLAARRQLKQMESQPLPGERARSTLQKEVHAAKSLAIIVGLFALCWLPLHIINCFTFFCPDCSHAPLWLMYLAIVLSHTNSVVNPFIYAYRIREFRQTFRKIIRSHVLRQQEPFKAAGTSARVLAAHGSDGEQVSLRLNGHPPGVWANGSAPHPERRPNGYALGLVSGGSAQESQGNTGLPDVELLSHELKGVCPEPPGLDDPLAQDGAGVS

Row | SMILES | NanoBRET Fold Response (ADORA2A, tracer 0.1μM) | NanoBRET Fold Response (ADORA2A, tracer 1μM) | further results
1 | O=C(CCc1ccc2n1[B-](F)(F)[N+]1=C(c3ccc[nH]3)C=CC1=C2)NCc1ccc(C(=O)NCCOCCC(=O)N[C@@H]2CC[C@@]3(O)[C@H]4Cc5ccc(O)c6c5[C@@]3(CCN4CC3CC3)[C@H]2O6)cc1 [Naltrexone-3-NB590] | 1.08 | 0.58 | 
2 | CCCn1c(=O)c2[nH]c(-c3ccc(OCC(=O)NCCNC(=O)CCOCCNC(=O)c4ccc(CNC(=O)CCc5ccc6n5[B-](F)(F)[N+]5=C(c7ccc[nH]7)C=CC5=C6)cc4)cc3)nc2n(CCC)c1=O [XAC-3-NB590] | 7.87 | 9.18 | 
3 | CC(C)N(CC[C@H](c1ccccc1)c1cc(CCNC(=O)c2ccc(CNC(=O)CCc3ccc4n3[B-](F)(F)[N+]3=C(c5ccc[nH]5)C=CC3=C4)cc2)ccc1O)C(C)C [Tolterodine-BZ-NB590] | 1.00 | 1.01 | 
4 | COc1ccc2[nH]c(-c3ccc(CNC(=O)CCOCCOCCOCCOCCNC(=O)CCc4ccc5n4[B-](F)(F)[N+]4=C(c6ccc[nH]6)C=CC4=C5)cc3)c(CCNC(C)=O)c2n1 [AzomelatoninICO9-2-NB590] |  |  | NanoBRET Fold Response (0.1μM tracer): 1.16; NanoBRET Fold Response (1μM tracer): 0.82
5 | CN1CCN(C2=Nc3cc(Cl)ccc3N(CC(=O)NCCOCCOCCOCCOCCNC(=O)CCc3ccc4n3[B-](F)(F)[N+]3=C(c5ccc[nH]5)C=CC3=C4)c3ccccc32)CC1 [Clozapine-c-2-NB590] |  |  | NanoBRET Fold Response (ADORA2A, 0.1μM tracer): 1.01; NanoBRET Fold Response (ADORA2A, 1μM tracer): 0.94
6 | COc1ccccc1N1CCN(CCCCN2C(=O)c3ccc(CNC(=O)CCOCCNC(=O)c4ccc(CNC(=O)CCc5ccc6n5[B-](F)(F)[N+]5=C(c7ccc[nH]7)C=CC5=C6)cc4)cc3C2=O)CC1 [NAN-190-3-NB590] | 1.00 | 0.91 | 
7 | Cc1nc2n(c(=O)c1CCN1CCC(c3noc4cc(F)ccc34)CC1)CCCC2OC(=O)NCCOCCOCCOCCOCCNC(=O)CCc1ccc2n1[B-](F)(F)[N+]1=C(c3ccc[nH]3)C=CC1=C2 (stereo not shown) [Risperidone-2-NB590] | 0.98 | 0.98 | 
8 | O=C(CCOCCOCCOCCOCCNC(=O)CCc1ccc2n1[B-](F)(F)[N+]1=C(c3ccc[nH]3)C=CC1=C2)NCCCN1CCN(C2=Nc3ccccc3Oc3ccc(Cl)cc32)CC1 [Loxapine-a-2-NB590] | 1.08 | 1.11 | 
9 | COc1ccccc1N1CCN(CCCCN2C(=O)c3ccc(CNC(=O)CCOCCOCCOCCOCCNC(=O)CCc4ccc5n4[B-](F)(F)[N+]4=C(c6ccc[nH]6)C=CC4=C5)cc3C2=O)CC1 [NAN-190-2-NB590] | 1.02 |  | 
10 | CC(C)N(CC[C@H](c1ccccc1)c1cc(CCNC(=O)CCOCCOCCOCCOCCNC(=O)CCc2ccc3n2[B-](F)(F)[N+]2=C(c4ccc[nH]4)C=CC2=C3)ccc1O)C(C)C [Tolterodine-2-NB590] | 1.35 | 0.95 | 
11 | N#CN=C(NCCCOc1cccc(CN2CCCCC2)c1)NCCNC(=O)CCOCCOCCOCCOCCNC(=O)CCc1ccc2n1[B-](F)(F)[N+]1=C(c3ccc[nH]3)C=CC1=C2 [Aminopotentidine-2-NB590] | 1.05 | 0.99 | 
12 | CCOC(=O)c1cc(C#N)c(N2CCC(C(=O)NS(=O)(=O)Cc3ccccc3/C=C/C(=O)NCCNC(=O)CCc3ccc4n3[B-](F)(F)[N+]3=C(c5ccc[nH]5)C=CC3=C4)CC2)nc1C [AZD1283-1-NB590] |  |  | NanoBRET Fold Response (ADORA2A, 0.1μM): 1.06; NanoBRET Fold Response (ADORA2A, 1μM): 1.04
13 | CN(C)CCC=C1c2ccccc2CCc2ccc(C(=O)NCCNC(=O)CCOCCOCCOCCOCCNC(=O)CCc3ccc4n3[B-](F)(F)[N+]3=C(c5ccc[nH]5)C=CC3=C4)cc21 [Amitriptyline-b-2-NB590] |  |  | NanoBRET Fold Response (tracer at 0.1μM, listed as amitriptyline-b-2-NB590): 1.07; NanoBRET Fold Response (tracer at 1μM, listed as amitriptyline-b-2-NB590): 1.20
14 | CN(C)CCC=C1c2ccccc2CCc2ccc(C(=O)NCCNC(=O)CCOCCOCCOCCOCCNC(=O)CCc3ccc4n3[B-](F)(F)[N+]3=C(c5ccc[nH]5)C=CC3=C4)cc21 [Amitriptyline-a-2-NB590] |  |  | NanoBRET Fold Response (tracer at 0.1μM): 1.02; NanoBRET Fold Response (tracer at 1μM): 1.07
15 | O=C(CCc1ccc2n1[B-](F)(F)[N+]1=C(c3ccc[nH]3)C=CC1=C2)NCCOCCOCCNC(=O)OCCOCCN1CCN(C2=Nc3ccccc3Sc3ccccc32)CC1 [Quetiapine-a-2-NB590] | 0.99 | 0.91 | 
16 | Cc1cc2c(s1)Nc1ccccc1N=C2N1CCN(CCCNC(=O)CCOCCOCCOCCOCCNC(=O)CCc2ccc3n2[B-](F)(F)[N+]2=C(c4ccc[nH]4)C=CC2=C3)CC1 [Olanzapine-a-2-NB590] | 0.97 | 0.93 | 
17 | CN1CCN(C2=Nc3cc(Cl)ccc3Nc3ccc(CNC(=O)CCOCCOCCOCCOCCNC(=O)CCc4ccc5n4[B-](F)(F)[N+]4=C(c6ccc[nH]6)C=CC4=C5)cc32)CC1 [Clozapine-b-2-NB590] |  |  | NanoBRET Fold Response (ADORA2A, 0.1μM tracer): 0.97; NanoBRET Fold Response (ADORA2A, 1μM tracer): 1.00
18 | COc1ccc2c(n1)c(CCNC(C)=O)cn2CCNC(=O)CCc1ccc2n1[B-](F)(F)[N+]1=C(c3ccc[nH]3)C=CC1=C2 [Azamelatonin-1-NB590] |  |  | NanoBRET Fold Response (0.1μM tracer): 0.87; NanoBRET Fold Response (1μM tracer): 0.92
19 | CN(CCC=C1c2ccccc2CCc2ccccc21)C(=O)CCOCCOCCOCCOCCNC(=O)CCc1ccc2n1[B-](F)(F)[N+]1=C(c3ccc[nH]3)C=CC1=C2 [Amitriptyline-e-2-NB590] |  |  | NanoBRET Fold Response (tracer at 1μM): 1.07
20 | O=C(CCc1ccc2n1[B-](F)(F)[N+]1=C(c3ccc[nH]3)C=CC1=C2)NCc1ccc(C(=O)NCCOCCOCCNCC(O)COc2cccc3ccccc23)cc1 (stereo not shown) [Propranolol-3-NB590] |  |  | NanoBRET Fold Response (ADORA2A, 0.1μM): 1.05; NanoBRET Fold Response (ADORA2A, 1μM): 0.99
21 | O=C(CCOCCOCCOCCOCCNC(=O)CCc1ccc2n1[B-](F)(F)[N+]1=C(c3ccc[nH]3)C=CC1=C2)NCCCN1CCN(C2=Nc3cc(Cl)ccc3Nc3ccccc32)CC1 [Clozapine-a-2-NB590] |  |  | NanoBRET Fold Response (ADORA2A, 0.1μM tracer): 0.95; NanoBRET Fold Response (ADORA2A, 1μM tracer): 0.89
